In brackets after ≈: the same amount, converted by molar mass.
Experiments:
[1] = test system: Acinetobacter baumannii ATCC 19606; test: Antibacterial MIC/MBC (broth microdilution); assay type: cell-based; conditions: for MBC / MIC: ATCC19606, Acinetobacter baumannii ATCC 19606; for MBC: read-out: MBC; for MIC: read-out: MIC
Procedure, shortened: (§1)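 Visible growth inhibition after 20 h at 37 degrees C defines the MIC, with compounds tested at 0.062-64 μg/mL in Mueller-Hinton broth 2 against about 5×10^5 CFU/mL. Bactericidal endpoint: 99.9% reduction of the starting inoculum on MH agar subculture.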

[2] = test system: Pseudomonas aeruginosa ATCC 27853; test: Antibacterial MIC/MBC (broth microdilution); assay type: cell-based; conditions: ATCC27853, Pseudomonas aeruginosa ATCC 27853; for MBC: read-out: MBC; for MIC: read-out: MIC
Procedure, shortened: as §1

[3] = test system: C. jejuni 4432; test: Antibacterial MIC/MBC (broth microdilution); assay type: cell-based, Campylobacter jejuni; conditions: for MBC / MIC: Campylobacter jejuni; for MBC: read-out: MBC; for MIC: read-out: MIC
From the text: (§2) Twelve reference bacterial strains and nine MDR clinically relevant bacterial strains were used in this study. Gram-negative bacteria comprised reference strains E. coli ATCC 25922, K. pneumoniae ATCC 13883, Salmonella enterica serovar Typhimurium CECT 443, P. aeruginosa ATCC 27853, A. baumannii ATCC 19606, C. jejuni ATCC 33560 (ATCC—American Type Culture Collection; CECT—Colección Espanola de Cultivos Tipo); clinical isolates E. coli SA/2, an extended-spectrum β-lactamase (ESBL)-producing strain and P. aeruginosa 33b, a pan-drug-resistant isolate; and animal isolates C. jejuni P5/4, a ciprofloxacin-resistant strain, C. jejuni 4432, C. jejuni 4433, C. jejuni 4448, and E. coli 2252, a COL-resistant strain [42]. Gram-positive strains included S. aureus ATCC 29213, E. faecalis ATCC 29212, S. pyogenes ATCC 19615, and environmental isolates methicillin-resistant S. aureus (MRSA) 66/1 [43], and VAN-resistant enterococci (VRE) E. faecalis B3/101 [44]. Gram-negative fish pathogens Yersinia ruckeri ATCC 29473, Listonella anguillarum ATCC 1924, and Tenacibaculum maritimum ATCC 43397 were also included.
(§3) Strains were kept in Trypto-Casein Soy agar (TSA—Biokar Diagnostics, Allone, Beauvais, France) slants and, before each assay, were sub-cultured in Mueller-Hinton agar (MHA—Biokar Diagnostics, Allone, Beauvais, France). Y. ruckeri ATCC 29473 and L. anguillarum ATCC 1924 were kept in Nutrient Agar (Condalab, Madrid, Spain) and T. maritimum ATCC 43397 was kept in TMM agar (Condalab, Madrid, Spain), and were sub-cultured in the respective culture media before each assay. For S. pyogenes ATCC 19615, CAMHB was supplemented with 3.75% lysed horse blood (LBH—Oxoid, Basingstoke, England), whereas for C. jejuni it was supplemented with 2.5% LHB. Colony-forming unit counts of the inoculum were conducted to determine the initial inoculum size (which should be approximately 5×10^5 CFU/mL). Sterility and growth controls were included in each assay. The 96-well U-shaped untreated polystyrene microtiter plates were incubated for 20 h at 37 degrees C. (42 degrees C. for C. jejuni, in a microaerophilic atmosphere) and the minimal inhibitory concentration (MIC) was determined as the lowest concentration of compound that prevented visible growth. The minimal bactericidal concentration (MBC) was determined by spreading 100 μL of the content of the wells with no visible growth on MH plates. The MBC was determined as the lowest concentration of compound that killed 99.9% of the initial inoculum after overnight incubation at 37 degrees C. Two independent assays were performed for reference and MDR strains.
(§4) An initial screening of the antibacterial activity of the compounds was performed by the Kirby-Bauer disk diffusion method, as recommended by the Clinical and Laboratory Standards Institute (CLSI). Briefly, sterile 6 mm blank paper disks (Oxoid, Basingstoke, England) impregnated with 15 μg of each compound were placed on inoculated MH agar plates. A blank disk with dimethylsulfoxide (DMSO) was used as a negative control. MH inoculated plates were incubated for 18-20 h at 37 degrees C. At the end of incubation, the inhibition halos where measured. The MIC was used to determine the antibacterial activity of each compound, in accordance with the recommendations of the CLSI. Two-fold serial dilutions of the compounds were prepared in Mueller-Hinton Broth 2 (MHB2—Sigma-Aldrich, St. Louis, MO, USA) within the concentration range of 0.062-64 μg/mL. CTX ranging between 0.031-16 μg/mL was used as a control. Sterility and growth controls were included in each assay. Purity checks and colony counts of the inoculum suspensions were also performed in order to ensure that the final inoculum density closely approximates the intended number (5×10^5 CFU/mL). The MIC was determined as the lowest concentration of compound that inhibited growth of the bacteria. The MBC was assessed by spreading 10 μL of culture collected from wells showing no visible growth on MH agar plates. […]

[4] = test system: C. jejuni P5/4; test: Antibacterial MIC/MBC (broth microdilution); assay type: cell-based, Campylobacter jejuni; conditions: Campylobacter jejuni; for MBC: read-out: MBC; for MIC: read-out: MIC
From the text: as §2, §3, §4

[5] = test system: C. jejuni 4433; test: Antibacterial MIC/MBC (broth microdilution); assay type: cell-based, Campylobacter jejuni; conditions: for MBC / MIC: Campylobacter jejuni; for MBC: read-out: MBC; for MIC: read-out: MIC
From the text: as §2, §3, §4

[6] = test system: C. jejuni 4448; test: Antibacterial MIC/MBC (broth microdilution); assay type: cell-based, Campylobacter jejuni; conditions: for MBC / MIC: Campylobacter jejuni; for MBC: read-out: MBC; for MIC: read-out: MIC
From the text: as §2, §3, §4

[7] = test system: Gram-negative and Gram-positive bacteria; test: Antibacterial activity, whole strain panel; assay type: cell-based
From the text: as §2, §3, §4

SMILES | MBC [1] | MIC [1] | MBC [2] | MIC [2] | MBC [3] | MIC [3] | MBC [4] | MIC [4] | MBC [5] | MIC [5] | MBC [6] | MIC [6] | antibacterial activity (in words) [3] | antibacterial activity (in words) [5] | antibacterial activity (in words) [6] | activity against Gram-negative bacteria (in words) ([7]; Gram-negative bacteria) | spectrum of antibacterial activity (in words) ([7]; all bacterial strains tested) | antibacterial activity (in words) ([1]; A. baumannii ATCC 19606)
C[C@H](CCC(=O)N1CCN(C(=O)OC(C)(C)C)CC1)[C@H]1CC[C@H]2[C@@H]3CC[C@@H]4C[C@H](O)CC[C@]4(C)[C@H]3C[C@H](O)[C@]12C [Compound 5, tert-butyl 4-((R)-4-((3R,5R,8R,9S,10S,12S,13R,14S,17R)-3,12-dihydroxy-10,13-dimethylhexadecahydro-1H-cyclopenta[a]phenanthren-17-yl)pentanoyl)piperazine-1-carboxylate] | > 64 µg/mL | > 64 µg/mL | > 64 µg/mL | > 64 µg/mL | > 64 µg/mL | > 64 µg/mL | > 64 µg/mL | > 64 µg/mL | > 64 µg/mL | > 64 µg/mL | > 64 µg/mL | > 64 µg/mL | – | – | – | – | – | –
C[C@H](CCC(=O)N1CCCCC1)[C@H]1CC[C@H]2[C@@H]3CC[C@@H]4C[C@H](O)CC[C@]4(C)[C@H]3C[C@H](O)[C@]12C [Compound 2, (R)-4-((3R,5R,8R,9S,10S,12S,13R,14S,17R)-3,12-dihydroxy-10,13-dimethylhexadecahydro-1H-cyclopenta[a]phenanthren-17-yl)-1-(piperidin-1-yl) pentan-1-one] | > 64 µg/mL | > 64 µg/mL | > 64 µg/mL | > 64 µg/mL | > 64 µg/mL | 64 µg/mL (≈ 139 µM) | > 64 µg/mL | > 64 µg/mL | > 64 µg/mL | > 64 µg/mL | > 64 µg/mL | > 64 µg/mL | showed antimicrobial activity | showed antimicrobial activity | showed antimicrobial activity | – | – | –
C[C@H](CCC(=O)N1CCN(C(=O)CC[C@H](C)[C@@H]2CC[C@@H]3[C@H]4CC[C@H]5C[C@@H](O)CC[C@@]5(C)[C@@H]4C[C@@H](O)[C@]32C)CC1)[C@H]1CC[C@H]2[C@@H]3CC[C@@H]4C[C@H](O)CC[C@]4(C)[C@H]3C[C@H](O)[C@]12C [Compound 4, (R)-4-((3R,5R,8R,9S,10S,12S,13R,14S,17R)-3,12-dihydroxy-10,13-dimethylhexadecahydro-1H-cyclopenta[a]phenanthren-17-yl)-1-(4-((S)-4-((3S,5S,8S,9R,10R,12R,13S,14R,17S)-3,12-dihydroxy-10,13-dimethylhexadecahydro-1H-cyclopenta[a]phenanthren-17-yl)pentanoyl)piperazin-1-yl) pentan-1-one] | 64 µg/mL (≈ 76.6 µM) | 64 µg/mL (≈ 76.6 µM) | > 64 µg/mL | > 64 µg/mL | > 64 µg/mL | > 64 µg/mL | > 64 µg/mL | > 64 µg/mL | > 64 µg/mL | > 64 µg/mL | > 64 µg/mL | > 64 µg/mL | – | – | – | exhibited activities | active in eight of the tested strains | displayed an inhibitory effect
